This is an account of results in patent publication US20170051002A1, “Rebaudioside A Crystal And Its Preparation Method And Use” (Zhucheng Haotian Pharm Co., Ltd., priority 2014, published 2017).

Data set [1] in a line: storage stability at 25° C. RH 60% for 3 months (crystal form, HPLC purity). It counts as physicochemical. The conditions noted are these: after standing for 3 months. The method, then: The maximum solubility of the sample obtained according to the above-mentioned examples is about 30 mg/mL, and the form remains unchanged when stored at 25° C. RH 60% for 3 months from the results of HPLC analysis (purity is detected by high performance liquid chromatography, and the liquid chromatographic column and liquid chromatography used are the same as those specified by JECFA in 2010).
Perparation of sample solution: Precisely 50-100 milligrams of rebaudioside A were weighed and placed in a 50 milliliter volumetric flask, and then a solution of water and acetonitrile in a ratio of 7:3 were added for dissolution to a scale of 50 milliliter. Detection step: 5 μl of a sample solution are injected under the following conditions. Chromatographic Column: A Capcell pak C18 MG II chromatographic column from the Shiseido company or a Luna 5μ C18(2) 100A chromatographic column from the Phenomenex company or a chromatographic column of equivalent specifications (length: 250 millimeters; inner diameter: 4.6 millimeters; packing particle size: 5 μm). Mobile Phase: a mixture of acetonitrile and a sodium phosphate buffer (specification: 10 mmol/L, pH value of 2.6) in a ratio of 32:68. […] Chromatographic Column temperature: detection patterns are recorded for about 30 minutes at 40° C. […]

The conditions of data set [2]: large number of scientific experiments; cited from earlier work.
A short description of data set [3]: dynamic vapor adsorption (DVS) hygroscopicity. Format: physicochemical. To be noted: conventional storage environment 40%-80% RH; 25° C. The method, then: “Dynamic vapor adsorption (DVS)” is an instrument for measuring the hygroscopicity of a sample. Its measurement method is known in the field. For example, an instrument from Surface Measurement Systems, Ltd. may be used to collect data of humidity ranging from 5% to 95% at 25 degrees Celsius. The weight deviation under each humidity is no more than ±0.02% within 10 min. The rebaudioside A Form 7 of the present invention has particular stability, which is conducive to storage. […] In a preferred embodiment, the DVS isotherm of the resulting rebaudioside A crystal form 7 is substantially identical to FIG. 4. DVS: All dynamic vapour adsorption (DVS) experimental data of the present invention are measured by a DVS Intrinsic dynamic vapour sorption instrument from SMS, UK. Measurement conditions: Temperature: 25° C.; Relative humidity range: 5%-95%.

For `C=C1C[C@@]23CC[C@H]4[C@@](C)(CCC[C@@]4(C)C(=O)O[C@@H]4O[C@H](CO)[C@@H](O)[C@H](O)[C@H]4O)[C@@H]2CC[C@]1(O[C@@H]1O[C@H](CO)[C@@H](O)[C@H](O[C@@H]2O[C@H](CO)[C@@H](O)[C@H](O)[C@H]2O)[C@H]1O[C@@H]1O[C@H](CO)[C@@H](O)[C@H](O)[C@H]1O)C3` [Rebaudioside A], the “purity change by HPLC compared to the starting material” value in data set [1] is “less than 0.5%”. The “toxicity and side effect” value in data set [2] was “without any toxicity and side effect”.
For `C=C1C[C@@]23CC[C@H]4[C@@](C)(CCC[C@@]4(C)C(=O)O[C@@H]4O[C@H](CO)[C@@H](O)[C@H](O)[C@H]4O)[C@@H]2CC[C@]1(O[C@@H]1O[C@H](CO)[C@@H](O)[C@H](O[C@@H]2O[C@H](CO)[C@@H](O)[C@H](O)[C@H]2O)[C@H]1O[C@@H]1O[C@H](CO)[C@@H](O)[C@H](O)[C@H]1O)C3` [rebaudioside A Form 7, rebaudioside A], in data set [3], the “hygroscopicity in DVS patterns” value is reported as “little hygroscopicity”.
